Measured values from ChEMBL document CHEMBL4043138, “Synthesis of antimalarial amide analogues based on the plant serrulatane diterpenoid 3,7,8-trihydroxyserrulat-14-en-19-oic acid” (Bioorg Med Chem Lett, 2017).
Calls of active or inactive are those of the source. The calls are words filed in the database; no cut-off is given here.

Legend:
[1] = test system: Plasmodium falciparum; test: Antimalarial activity against Plasmodium falciparum 3D7 at 10 uM after 72 hrs by DAPI staining-based fluorescence microscopic analysis; type: functional
[2] = test system: Plasmodium falciparum; test: Antimalarial activity against Plasmodium falciparum 3D7 after 72 hrs by DAPI staining-based fluorescence microscopic analysis; type: functional; conditions: 3D7, 72 h
[3] = test system: Plasmodium falciparum; test: Antimalarial activity against Plasmodium falciparum Dd2 after 72 hrs by DAPI staining-based fluorescence microscopic analysis; type: functional; conditions: Dd2, 72 h
[4] = Selectivity ratio of IC50 for Plasmodium falciparum Dd2 to IC50 for Plasmodium falciparum 3D7; type: functional
[5] = (§1) Cytotoxicity against HEK293 cells assessed as cell growth inhibition at 80 uM after 72 hrs by Alamar blue assay relative to control; type: cell-based; conditions: human, HEK293 cells; read-out: GI
[6] = test system: HEK293; test: Cytotoxicity against HEK293 cells assessed as cell growth inhibition after 72 hrs by Alamar blue assay; type: cell-based; conditions: Homo sapiens, HEK293, 72 h
[7] = Selectivity index, ratio of IC50 for HEK293 cells to IC50 for Plasmodium falciparum 3D7; type: toxicity; conditions: human, HEK293 cells versus Plasmodium falciparum 3D7; read-out: Ratio IC50
[8] = test system: HEK293; test: as §1; type: cell-based; conditions: human, hek293, 72 h, 80 µM
[9] = test system: HEK293; test: Cytotoxicity against HEK293 cells assessed as cell growth inhibition at 40 uM after 72 hrs by Alamar blue assay; type: cell-based; conditions: human, hek293, 72 h
[10] = test system: Plasmodium falciparum; test: Antimalarial activity against Plasmodium falciparum Dd2 at 80 uM after 72 hrs by DAPI staining-based fluorescence microscopic analysis; type: functional
[11] = Cytotoxicity against HEK293 cells assessed as cell growth inhibition at 20 uM after 72 hrs by Alamar blue assay relative to control; type: cell-based; conditions: human, read-out: GI

SMILES	Activity [1]	IC50 [2] [µM]	IC50 [3] [µM]	Ratio IC50 [4]	inhibition at 72 h, 80 µM [5] [%]	IC50 [6] [µM]	selectivity ratio [7]	growth inhibition (GI) [8]	growth inhibition (GI) [9]	Activity [10]	inhibition at 72 h, 20 µM [11] [%]
CC(C)=CCC[C@H](C)[C@H]1c2cc(C(=O)O)c(O)c(O)c2[C@H](C)C[C@H]1O	inactive	–	–	–	–	–	–	–	–	–	–
CC(C)=CCC[C@H](C)[C@H]1c2cc(C(=O)NCc3ccccc3)c(OC(=O)C(C)(C)C)c(OC(=O)C(C)(C)C)c2[C@H](C)C[C@H]1OC(=O)C(C)(C)C	–	2.12	6.17	2.9	82	40	19	–	–	–	–
CC(C)=CCC[C@H](C)[C@H]1c2cc(C(=O)NCc3ccc(Cl)cc3)c(OC(=O)C(C)(C)C)c(OC(=O)C(C)(C)C)c2[C@H](C)C[C@H]1OC(=O)C(C)(C)C	–	1.36	4.96	3.6	86	40	29.4	–	–	–	–
CC(=O)O[C@@H]1C[C@@H](C)c2c(cc(C(=O)O)c(O)c2O)[C@@H]1[C@@H](C)CCC=C(C)C	inactive	–	–	–	–	–	–	–	–	–	–
CC(C)=CCC[C@H](C)[C@H]1c2cc(C(=O)O)c(O)c(OC(=O)C(C)(C)C)c2[C@H](C)C[C@H]1OC(=O)C(C)(C)C	–	8.44	10.2	1.2	100	40	4.7	–	–	–	–
CC(C)=CCC[C@H](C)[C@H]1c2cc(C(=O)NCCc3ccc(Br)cc3)c(OC(=O)C(C)(C)C)c(OC(=O)C(C)(C)C)c2[C@H](C)C[C@H]1OC(=O)C(C)(C)C	–	3.12	7.42	2.4	–	80	> 26	Non-Toxic	–	–	–
CC(C)=CCC[C@H](C)[C@H]1c2cc(C(=O)O)c(OC(=O)C(C)(C)C)c(OC(=O)C(C)(C)C)c2[C@H](C)C[C@H]1OC(=O)C(C)(C)C	–	9.97	18	1.8	100	40	4	–	–	–	–
CC(C)=CCC[C@H](C)[C@H]1c2cc(C(=O)NCc3ccc(Br)cc3)c(OC(=O)C(C)(C)C)c(OC(=O)C(C)(C)C)c2[C@H](C)C[C@H]1OC(=O)C(C)(C)C	–	1.42	5.03	3.6	71	40	28	–	–	–	–
CC(C)=CCC[C@H](C)[C@H]1c2cc(C(=O)NCCN(C)C)c(OC(=O)C(C)(C)C)c(OC(=O)C(C)(C)C)c2[C@H](C)C[C@H]1OC(=O)C(C)(C)C	–	5.65	8.76	1.6	–	14.6	2.6	–	–	–	–
CC(C)=CCC[C@H](C)[C@H]1c2cc(C(=O)NCc3ccc(F)cc3)c(OC(=O)C(C)(C)C)c(OC(=O)C(C)(C)C)c2[C@H](C)C[C@H]1OC(=O)C(C)(C)C	–	1.79	6.13	3.4	44	80	44	–	–	–	–
CC(C)=CCC[C@H](C)[C@H]1c2cc(C(=O)NCCc3ccc(Cl)cc3)c(OC(=O)C(C)(C)C)c(OC(=O)C(C)(C)C)c2[C@H](C)C[C@H]1O	–	2.44	4.57	1.9	68	80	32	–	–	–	–
CCN(CC)CCCC(C)Nc1ccnc2cc(Cl)ccc12 (stereo not given) [CHLOROQUINE]	–	–	–	–	–	40	–	–	Non-Toxic	–	–
CC(C)=CCC[C@H](C)[C@H]1c2cc(C(=O)NCCc3ccc(F)cc3)c(OC(=O)C(C)(C)C)c(OC(=O)C(C)(C)C)c2[C@H](C)C[C@H]1OC(=O)C(C)(C)C	–	1.25	3.76	3	–	80	> 64	Non-Toxic	–	–	–
CC(C)=CCC[C@H](C)[C@H]1c2cc(C(=O)NCCc3ccc(Cl)cc3)c(OC(=O)C(C)(C)C)c(OC(=O)C(C)(C)C)c2[C@H](C)C[C@H]1OC(=O)C(C)(C)C	–	2.7	5.94	2.2	–	80	> 30	Non-Toxic	–	–	–
CC(C)=CCC[C@H](C)[C@H]1c2cc(C(=O)O)c(OC(=O)C(C)(C)C)c(OC(=O)C(C)(C)C)c2[C@H](C)C[C@H]1O	–	13.6	–	–	70	40	2.9	–	–	inactive	–
CC(C)=CCC[C@H](C)[C@H]1c2cc(C(=O)NCCc3ccccc3)c(OC(=O)C(C)(C)C)c(OC(=O)C(C)(C)C)c2[C@H](C)C[C@H]1OC(=O)C(C)(C)C	–	1.4	3.63	2.6	–	80	> 57	Non-Toxic	–	–	–
C[C@H]1[C@H](OC(=O)CCC(=O)O)O[C@@H]2O[C@@]3(C)CC[C@H]4[C@H](C)CC[C@@H]1[C@@]24OO3 [ARTESUNATE]	–	–	0.001	–	–	10	> 11600	–	–	–	91
CC(=O)OCc1cc2c(c(O)c1O)[C@H](C)C[C@@H](OC(C)=O)[C@H]2[C@@H](C)CCC=C(C)C	–	6.89	8.76	1.3	59	80	11.6	–	–	–	–
COc1ccc(C[C@H](N)C(=O)N[C@H]2[C@@H](O)[C@H](n3cnc4c(N(C)C)ncnc43)O[C@@H]2CO)cc1 [PUROMYCIN]	–	0.0532	0.0438	1.16	–	0.46	9	–	–	–	–
